From PubChem BioAssay AID298 (DTP/NCI, 2004)
Inconclusive results are not listed.

Tested on: MX-1 breast xenograft, intrarenal, nude mice, tumor weight
Experiment: NCI In Vivo Anticancer Drug Screen. Data for tumor model Human Mammary Carcinoma MX-1 Xenograft (intrarenal inoculation) in NU/NU BALB/C (nude) mice
Settings: endpoint: mean tumor weight change, higher = larger tumour
Method in brief: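 Mice w/ transplanted tumors, drug vs vehicle; endpoint survival or tumor size; value = T/C.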

## O=C1CN(c2ccccc2)C(=O)C1C(=O)Nc1ccc(Cl)c(Cl)c1 (stereo not given)
dose: 120.0 mg/kg/injection, schedule: Q04DX003 (ip), vehicle: saline with Tween-80
  T/C: 70 % of control
dose: 240.0 mg/kg/injection, schedule: Q04DX003 (ip), vehicle: saline with Tween-80
  T/C: 32 % of control

## COc1ccc(CC2C(=O)NC(C)C(=O)N(C)C3Cc4ccc(cc4)Oc4cc(ccc4O)CC(C(=O)NC(C)C(=O)NC(C)C(=O)N2C)N(C)C3=O)cc1 (stereo not given)
dose: 8.0 mg/kg/injection, schedule: Q04DX003 (sc), vehicle: saline with Tween-80
  T/C: 27 % of control
dose: 16.0 mg/kg/injection, schedule: Q04DX003 (sc), vehicle: saline with Tween-80
  T/C: 25 % of control
dose: 32.0 mg/kg/injection, schedule: Q04DX003 (sc), vehicle: saline with Tween-80
  T/C: 3 % of control

## O=[N+]([O-])O.[Ga]
dose: 200.0 mg/kg/injection, schedule: Q04DX003 (sc), vehicle: saline
  T/C: 61 % of control
dose: 400.0 mg/kg/injection, schedule: Q04DX003 (sc), vehicle: saline
  T/C: 67 % of control
dose: 800.0 mg/kg/injection, schedule: Q04DX003 (sc), vehicle: saline
  T/C: 81 % of control
dose: 1600.0 mg/kg/injection, schedule: Q04DX003 (sc), vehicle: saline
  T/C: 74 % of control

## COc1cccc2c1C(=O)C1=C(C2=O)c2c(O)cc(CO)cc2C(O)C1O (stereo not given)
dose: 6.25 mg/kg/injection, schedule: Q04DX003 (ip), vehicle: other
  T/C: 84 % of control
dose: 12.5 mg/kg/injection, schedule: Q04DX003 (ip), vehicle: other
  T/C: 102 % of control
dose: 25.0 mg/kg/injection, schedule: Q04DX003 (ip), vehicle: other
  T/C: 96 % of control

## CCCCCCCCCCCCN1C(C)=CS/C1=C\C=C\c1scc(C)[n+]1CCCCCCCCCCCC
dose: 0.75 mg/kg/injection, schedule: Q04DX003 (ip), vehicle: saline with Tween-80
  T/C: 91 % of control
dose: 1.5 mg/kg/injection, schedule: Q04DX003 (ip), vehicle: saline with Tween-80
  T/C: 89 % of control
dose: 3.0 mg/kg/injection, schedule: Q04DX003 (ip), vehicle: saline with Tween-80
  T/C: 28 % of control

## Cc1ccc(/C=C/C(=O)/C=C/c2ccc(C)o2)o1
dose: 100.0 mg/kg/injection, schedule: Q04DX003 (ip), vehicle: DMSO
  T/C: 94 % of control
dose: 200.0 mg/kg/injection, schedule: Q04DX003 (ip), vehicle: DMSO
  T/C: 112 % of control
dose: 800.0 mg/kg/injection, schedule: Q04DX003 (ip), vehicle: DMSO
  T/C: 107 % of control

## Nc1nc2c(ncn2C2OC(CO)C(O)C2O)c(=O)[nH]1 (stereo not given)
dose: 300.0 mg/kg/injection, schedule: Q04DX003 (sc), vehicle: saline with Tween-80
  T/C: 84 % of control
dose: 600.0 mg/kg/injection, schedule: Q04DX003 (sc), vehicle: saline with Tween-80
  T/C: 81 % of control
dose: 1200.0 mg/kg/injection, schedule: Q04DX003 (sc), vehicle: saline with Tween-80
  T/C: 82 % of control
dose: 2400.0 mg/kg/injection, schedule: Q04DX003 (sc), vehicle: saline with Tween-80
  T/C: 88 % of control

## CC(C)(O)/C=C/C(=O)[C@](C)(O)[C@H]1[C@H](O)C[C@@]2(C)[C@@H]3CC=C4[C@@H](C=C(O)C(=O)C4(C)C)[C@]3(C)C(=O)C[C@]12C
dose: 0.25 mg/kg/injection, schedule: Q04DX003 (ip), vehicle: water
  T/C: 155 % of control
dose: 0.5 mg/kg/injection, schedule: Q04DX003 (ip), vehicle: water
  T/C: 118 % of control
dose: 1.0 mg/kg/injection, schedule: Q04DX003 (ip), vehicle: water
  T/C: 122 % of control
dose: 2.0 mg/kg/injection, schedule: Q04DX003 (ip), vehicle: water
  T/C: 86 % of control

## CC(/C=C/C1OC(=O)C=CC1C)=C\C(C)C/C=C/C(C)=C/C(C)C(=O)C(C)C(O)C(C)C/C(C)=C/C(=O)O (stereo not given)
dose: 50.0 micrograms/kg/injection, schedule: Q04DX003 (ip), vehicle: alcohol
  T/C: 104 % of control
dose: 100.0 micrograms/kg/injection, schedule: Q04DX003 (ip), vehicle: alcohol
  T/C: 87 % of control
dose: 200.0 micrograms/kg/injection, schedule: Q04DX003 (ip), vehicle: alcohol
  T/C: 81 % of control
dose: 400.0 micrograms/kg/injection, schedule: Q04DX003 (ip), vehicle: alcohol
  T/C: 111 % of control

## O=C[C@@H](CO)O[C@H](C=O)n1cnc2c(=O)[nH]cnc21
dose: 100.0 mg/kg/injection, schedule: Q04DX003 (sc), vehicle: saline with Tween-80
  T/C: 73 % of control
dose: 200.0 mg/kg/injection, schedule: Q04DX003 (sc), vehicle: saline with Tween-80
  T/C: 35 % of control
dose: 400.0 mg/kg/injection, schedule: Q04DX003 (sc), vehicle: saline with Tween-80
  T/C: -63 % of control

## CN(C)c1ccc2c(Nc3ccc(NS(C)(=O)=O)cc3)c3ccc(N(C)C)cc3nc2c1
dose: 100.0 mg/kg/injection, schedule: Q04DX003 (ip), vehicle: Klucel (hydroxypropylcellulose) (HPC)
  T/C: 115 % of control
dose: 200.0 mg/kg/injection, schedule: Q04DX003 (ip), vehicle: Klucel (hydroxypropylcellulose) (HPC)
  T/C: 39 % of control
